Data: ChEMBL document CHEMBL1201862, “PubChem BioAssay data set” (2004)
Calls of active or inactive are those of the source.

Experiments:
[1] = A375 melanoma cell viability loss, dose response, counter-screen for MITF inhibitor project, CellTiter-Glo luminescence, dry powder, set 4 (AID 624364); format: functional, cell-based; settings: A-375;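 further: A375 melanoma cells are MITF independent so this is a counter screen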
[2] = A375 melanoma cell cytotoxicity, dose response, counter-screen for MITF inhibitor project, CellTiter-Glo luminescence, dry powder, set 2 (AID 624489); format: functional, cell-based; settings: A-375;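 further: actives are compounds lowering A375 viability meaning general cytotoxicity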
[3] = biological target: Induced myeloid leukemia cell differentiation protein Mcl-1 (Homo sapiens, UniProt Q07820); format: functional
[4] = biological target: Eukaryotic translation initiation factor 4E (Mus musculus, UniProt P63073); assay: eIF4E–eIF4G protein interaction inhibitors, dose response, biochemical, TR-FRET (AID 855); format: functional;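 further: potency for disrupting eIF4E binding to eIF4GI seen as loss of FRET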
[5] = THP-1 cell cytotoxicity, dose response, cytotoxicity control for Vif-APOBEC3G degradation inhibitor project, THP-1 cells (AID 1117359); format: functional; settings: Human immunodeficiency virus 1, THP-1
[6] = biological target: T1, Oxysterols receptor LXR-beta (Homo sapiens, UniProt P55055); format: functional, cell-based;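 further: agonist activity at LXR measured by a cell-based luminescence readout across a dose range, run as a counterscreen for daf-12 agonists; HEK293 cells with Gal4-LXR fusion and GAL4-driven luciferase reporter; potency for activation of Gal4-LXR reporter so compounds are agonists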
T1 sequence (P55055 whole entry): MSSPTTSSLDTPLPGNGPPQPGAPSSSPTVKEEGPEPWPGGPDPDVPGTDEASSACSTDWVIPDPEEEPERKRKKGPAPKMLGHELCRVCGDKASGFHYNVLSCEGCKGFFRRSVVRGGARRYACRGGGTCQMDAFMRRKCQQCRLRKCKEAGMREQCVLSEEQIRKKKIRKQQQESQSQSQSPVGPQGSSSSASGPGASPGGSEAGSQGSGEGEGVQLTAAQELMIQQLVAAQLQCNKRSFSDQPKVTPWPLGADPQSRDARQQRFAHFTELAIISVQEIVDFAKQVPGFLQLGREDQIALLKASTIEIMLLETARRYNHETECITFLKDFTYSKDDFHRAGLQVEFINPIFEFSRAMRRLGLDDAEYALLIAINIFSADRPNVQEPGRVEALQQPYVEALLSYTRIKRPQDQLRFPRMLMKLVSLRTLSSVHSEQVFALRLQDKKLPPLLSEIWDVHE

fMet-Leu-Phe receptor = biological target: T2, fMet-Leu-Phe receptor (Homo sapiens, UniProt P21462); assay: FPR ligands, dose response (AID 519); format: functional
T2 sequence (P21462 whole entry): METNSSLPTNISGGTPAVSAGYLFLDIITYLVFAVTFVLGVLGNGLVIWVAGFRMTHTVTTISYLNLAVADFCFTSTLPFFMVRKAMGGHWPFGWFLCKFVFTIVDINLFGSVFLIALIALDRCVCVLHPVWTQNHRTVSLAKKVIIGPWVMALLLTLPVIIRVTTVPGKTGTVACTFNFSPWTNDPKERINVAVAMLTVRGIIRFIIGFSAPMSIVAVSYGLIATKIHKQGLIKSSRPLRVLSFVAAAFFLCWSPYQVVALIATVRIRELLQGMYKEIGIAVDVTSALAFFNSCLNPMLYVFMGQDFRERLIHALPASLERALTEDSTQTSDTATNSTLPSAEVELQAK

[7] = inhibitors of PGC1a acetylation in cells, dose response, cell-based, cherry-picked samples (AID 720514); format: functional;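 further: potency may reflect raised or lowered acetylation signal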
[8] = biological target: Peroxisome proliferator-activated receptor gamma/Nuclear receptor coactivator 2 (Homo sapiens, UniProt P37231); format: functional;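 further: agonist potency for raising coactivator recruitment to the receptor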
[9] = biological target: Peroxisome proliferator-activated receptor gamma/Nuclear receptor coactivator 1 (Homo sapiens, UniProt P37231); format: functional;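 further: agonist potency as compounds enhance coactivator SRC-1 recruitment to PPARgamma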
[10] = biological target: Peroxisome proliferator-activated receptor gamma/Nuclear receptor coactivator 3 (Homo sapiens, UniProt P37231); format: functional;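 further: agonist potency for raising coactivator recruitment to the receptor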
Paired box protein Pax-8 = Paired box protein Pax-8 (Homo sapiens, UniProt Q06710); assay: inhibitors of PAX8-driven TPO luciferase reporter, dose response, RMG-I cells, cherry-pick (AID 687027); format: functional, cell-based;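 further: luciferase reporter driven by Pax8 target thyroperoxidase promoter measured by SteadyGlo luminescence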
[11] = non-specific cell cytotoxicity, dose response, cytotoxicity control for PAX8 inhibitor project, plate reader, dry powder samples (AID 743021); format: functional, cell-based
[12] = cytotoxicity in OVCAR8 ovarian cancer cells, dose response, PAX8 project, cell-based, plate reader, dry powder samples (AID 743197); format: functional; settings: OVCAR-8
[13] = inhibitors of HIV Env-driven cell fusion, dose response, cherry-pick (AID 652057); format: functional, cell-based
[14] = ZM109 Env clade C HIV-1 fusion inhibitors, dose response, HeLa effector, CEM target cells, luciferase, cherry-pick (AID 652058); format: functional, cell-based
[15] = off-target signal loss in HeLa-CEM21 co-culture – HeLa F-luc CTL cells, cherry-picked, counter-screen for HIV-1 Env fusion inhibitor project, dose response (AID 652040); format: functional, cell-based;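 further: potency for signal decrease marking cytotoxic or nonspecific inhibition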
[16] = inhibitors of clade B AD8 Env fusion, dose response, cell-based, cherry-pick (AID 652062); format: functional;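 further: luciferase signal from cell-cell fusion driven by HIV-1 clade B AD8 Env; potency is for inhibitors of fusion seen as a drop in luminescence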
[17] = A2780 ovarian cancer cell cytotoxicity, dose response, cytotoxicity control, plate reader, dry powder samples (AID 743046); format: functional, cell-based
[18] = NIH:OVCAR-3 ovarian cancer cell cytotoxicity, dose response, PAX8 inhibitor project, plate reader, dry powder samples (AID 743044); format: functional, cell-based
[19] = biological target: T3, Low molecular weight phosphotyrosine protein phosphatase (Homo sapiens, UniProt P24666); format: functional; settings: read-out: IC50_Mean;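 further: Dose-response confirmation assay measuring inhibition of LMPTP enzyme activity by fluorescence intensity read-out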
T3 sequence (P24666 whole entry): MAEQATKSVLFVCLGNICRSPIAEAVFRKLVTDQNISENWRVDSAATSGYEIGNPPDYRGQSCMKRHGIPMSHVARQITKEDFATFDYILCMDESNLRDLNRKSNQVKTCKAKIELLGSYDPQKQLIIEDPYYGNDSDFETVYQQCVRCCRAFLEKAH

[20] = Artemis endonuclease inhibitor potency, dose response, biochemical, fluorescence intensity (AID 720701); format: functional;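 further: Artemis endonuclease enzyme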
[21] = HepG2 cell cytotoxicity, dose response, cytotoxicity control, plate reader, cherry-pick, antagonist series (AID 743416); format: functional, cell-based
[22] = HEK293 cell cytotoxicity, dose response, cytotoxicity control, plate reader, cherry-picked samples (AID 743446); format: functional, cell-based
[23] = LGR2 antagonists, dose response, cell-based, HEK293, CRE-luciferase reporter, cherry pick, set 2 (AID 743343); format: functional;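 further: transfected cells were stimulated with diluted bursicon conditioned medium after compound addition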
[24] = MC4R antagonists, dose response, counter-screen for LGR2 antagonist project, cell-based, plate reader, cherry pick (AID 743444); format: functional;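 further: transfected HEK 293 cells stimulated with alpha-MSH peptide; potency of inhibitors of the alpha-MSH evoked signal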
[25] = cytotoxicity in HPDE-C7 cells, cell-based, fluorescence, HTS (AID 430); format: functional; settings: Homo sapiens
[26] = cytotoxicity in KRAS-transformed pancreatic duct cells, primary screen, cell-based, fluorescence, HTS (AID 431); format: functional; settings: Homo sapiens;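 further: cell line used: HPDE-C7K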
[27] = microbe, parasite or virus in culture; format: functional; settings: Mycobacterium tuberculosis
[28] = biological target: T4, Calpain-2 catalytic subunit (Sus scrofa, UniProt P43367); assay: pig calpain II inhibitor potency, dose response, biochemical, fluorogenic peptide substrate (AID 1420); format: functional
T4 sequence (P43367 whole entry): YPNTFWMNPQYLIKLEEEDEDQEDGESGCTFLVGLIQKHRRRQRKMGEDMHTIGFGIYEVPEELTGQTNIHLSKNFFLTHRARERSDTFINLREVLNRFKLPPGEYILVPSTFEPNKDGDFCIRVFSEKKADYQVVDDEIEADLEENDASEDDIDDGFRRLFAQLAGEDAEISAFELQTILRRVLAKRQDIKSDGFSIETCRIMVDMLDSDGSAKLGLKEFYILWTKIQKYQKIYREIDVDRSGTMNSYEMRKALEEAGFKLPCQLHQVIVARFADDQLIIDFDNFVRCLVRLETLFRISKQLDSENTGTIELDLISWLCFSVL

Cysteine protease ATG4B = biological target: T5, Cysteine protease ATG4B (Homo sapiens, UniProt Q9Y4P1); format: functional;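 further: Fluorescence-based dose-response confirmation assay measuring inhibition of ATG4B activity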
T5 sequence (Q9Y4P1 whole entry): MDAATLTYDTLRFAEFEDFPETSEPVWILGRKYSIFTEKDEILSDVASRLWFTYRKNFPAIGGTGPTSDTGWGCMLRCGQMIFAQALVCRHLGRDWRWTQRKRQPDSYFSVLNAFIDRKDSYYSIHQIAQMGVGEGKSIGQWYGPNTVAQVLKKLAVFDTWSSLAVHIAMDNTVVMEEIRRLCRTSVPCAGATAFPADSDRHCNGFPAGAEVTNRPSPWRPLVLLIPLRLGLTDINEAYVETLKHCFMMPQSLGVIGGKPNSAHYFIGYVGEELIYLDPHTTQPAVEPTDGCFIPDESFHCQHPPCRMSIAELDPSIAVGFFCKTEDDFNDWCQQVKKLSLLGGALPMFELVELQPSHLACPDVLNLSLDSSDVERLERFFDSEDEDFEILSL

[29] = biological target: Heat shock protein HSP 90-alpha (Homo sapiens, UniProt P07900); format: functional, organism-based
Phospholipase A2 = Phospholipase A2 (Homo sapiens, UniProt P04054); format: functional;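 further: confirmatory dose-response counterscreen on phospholipase A2, testing hits that came from an ultra-high-throughput screen for ATG4B inhibitors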
Mu-type opioid receptor = Mu-type opioid receptor (Homo sapiens, UniProt P35372); format: functional, cell-based;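 further: U2OS cells with beta-arrestin recruitment to OPRM1 by beta-gal complementation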
[30] = biological target: 5-hydroxytryptamine receptor 2A (Mus musculus, UniProt P35363); format: functional, cell-based;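 further: CHO-K1 cells with tagged receptor and beta-arrestin; agonist potency measured as compound-induced activation of the receptor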
[31] = HEp-2 cell cytotoxicity, dose response, cytotoxicity control for RSV inhibitor project, HTS (AID 2410); format: functional; settings: human respiratory syncytial virus
[32] = system: Streptococcus sp. 'group A'; assay: growth inhibition of control SK(-) GAS strain, dose response, counter-screen for streptokinase expression inhibitor project, luminescence, kanamycin, BacTiterGlo, confirmation (AID 1900); format: functional, organism-based
[33] = growth suppression of PTEN-null colon cells, dose response, cell-based, HCT116 PTEN knockout (AID 1047); format: functional;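 further: HCT116 colon tumor cells with PTEN knocked out; cells exposed to compound for 60 hours before readout; potency for loss of cell viability measured by luminescence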
[34] = growth suppression of beta-catenin-knockout colon cells, dose response, cell-based, HCT116, human colon tumor (AID 1045); format: functional;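 further: HCT116 colon tumor cells with beta catenin knocked out; cells exposed to compound for 60 hours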
Streptococcus = assay: Group A Streptococcus viability loss, dose response, counter-screen for streptokinase expression inhibitor project, luminescence, BacTiterGlo (AID 1915); format: functional, organism-based;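 further: potency for reduction of bacterial viability or growth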

Paired box protein Pax-8, sequence (Q06710 whole entry): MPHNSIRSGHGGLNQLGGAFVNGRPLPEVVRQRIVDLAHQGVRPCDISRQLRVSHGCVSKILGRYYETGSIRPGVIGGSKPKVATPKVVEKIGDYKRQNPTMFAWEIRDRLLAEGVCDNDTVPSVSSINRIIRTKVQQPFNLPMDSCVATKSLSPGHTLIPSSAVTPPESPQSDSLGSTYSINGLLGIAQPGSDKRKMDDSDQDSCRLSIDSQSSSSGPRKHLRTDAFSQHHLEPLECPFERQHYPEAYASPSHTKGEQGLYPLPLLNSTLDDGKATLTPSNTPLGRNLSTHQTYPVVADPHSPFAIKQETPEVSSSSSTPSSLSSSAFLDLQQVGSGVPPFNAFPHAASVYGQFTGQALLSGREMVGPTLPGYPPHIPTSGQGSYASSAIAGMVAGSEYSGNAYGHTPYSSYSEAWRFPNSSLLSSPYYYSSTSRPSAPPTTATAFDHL
5-hydroxytryptamine receptor 2A, sequence (P35363 whole entry): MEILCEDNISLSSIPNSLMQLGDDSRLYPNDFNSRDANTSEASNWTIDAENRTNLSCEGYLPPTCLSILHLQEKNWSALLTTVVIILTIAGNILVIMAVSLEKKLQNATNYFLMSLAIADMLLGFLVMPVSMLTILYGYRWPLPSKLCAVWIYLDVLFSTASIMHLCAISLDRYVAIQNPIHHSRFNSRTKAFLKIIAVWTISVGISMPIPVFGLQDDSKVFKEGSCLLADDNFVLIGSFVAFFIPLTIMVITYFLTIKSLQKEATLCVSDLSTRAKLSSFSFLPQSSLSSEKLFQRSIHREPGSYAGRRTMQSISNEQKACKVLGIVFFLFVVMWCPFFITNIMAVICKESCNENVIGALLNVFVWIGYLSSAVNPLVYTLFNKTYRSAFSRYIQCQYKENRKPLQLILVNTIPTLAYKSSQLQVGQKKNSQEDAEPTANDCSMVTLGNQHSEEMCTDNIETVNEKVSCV
Phospholipase A2, sequence (P04054 whole entry): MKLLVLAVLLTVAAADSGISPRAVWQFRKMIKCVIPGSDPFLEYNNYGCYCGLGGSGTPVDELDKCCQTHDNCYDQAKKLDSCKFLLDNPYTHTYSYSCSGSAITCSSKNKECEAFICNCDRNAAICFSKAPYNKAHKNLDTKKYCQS
Peroxisome proliferator-activated receptor gamma/Nuclear receptor coactivator 1, sequence (P37231 whole entry): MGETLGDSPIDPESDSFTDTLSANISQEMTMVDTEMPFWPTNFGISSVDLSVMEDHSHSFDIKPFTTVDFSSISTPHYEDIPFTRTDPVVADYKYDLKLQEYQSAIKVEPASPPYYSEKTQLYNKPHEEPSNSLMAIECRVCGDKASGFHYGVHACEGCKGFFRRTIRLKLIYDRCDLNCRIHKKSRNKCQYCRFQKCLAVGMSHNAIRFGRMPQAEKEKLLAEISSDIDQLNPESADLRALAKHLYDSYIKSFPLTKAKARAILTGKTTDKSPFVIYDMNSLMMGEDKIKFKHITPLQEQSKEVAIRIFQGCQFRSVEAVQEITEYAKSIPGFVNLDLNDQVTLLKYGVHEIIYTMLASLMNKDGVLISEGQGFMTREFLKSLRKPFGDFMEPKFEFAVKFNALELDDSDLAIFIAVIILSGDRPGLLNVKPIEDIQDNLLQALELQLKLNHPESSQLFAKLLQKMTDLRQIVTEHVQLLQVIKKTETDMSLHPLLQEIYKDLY
Peroxisome proliferator-activated receptor gamma/Nuclear receptor coactivator 1, sequence (Q15788 whole entry, further chain): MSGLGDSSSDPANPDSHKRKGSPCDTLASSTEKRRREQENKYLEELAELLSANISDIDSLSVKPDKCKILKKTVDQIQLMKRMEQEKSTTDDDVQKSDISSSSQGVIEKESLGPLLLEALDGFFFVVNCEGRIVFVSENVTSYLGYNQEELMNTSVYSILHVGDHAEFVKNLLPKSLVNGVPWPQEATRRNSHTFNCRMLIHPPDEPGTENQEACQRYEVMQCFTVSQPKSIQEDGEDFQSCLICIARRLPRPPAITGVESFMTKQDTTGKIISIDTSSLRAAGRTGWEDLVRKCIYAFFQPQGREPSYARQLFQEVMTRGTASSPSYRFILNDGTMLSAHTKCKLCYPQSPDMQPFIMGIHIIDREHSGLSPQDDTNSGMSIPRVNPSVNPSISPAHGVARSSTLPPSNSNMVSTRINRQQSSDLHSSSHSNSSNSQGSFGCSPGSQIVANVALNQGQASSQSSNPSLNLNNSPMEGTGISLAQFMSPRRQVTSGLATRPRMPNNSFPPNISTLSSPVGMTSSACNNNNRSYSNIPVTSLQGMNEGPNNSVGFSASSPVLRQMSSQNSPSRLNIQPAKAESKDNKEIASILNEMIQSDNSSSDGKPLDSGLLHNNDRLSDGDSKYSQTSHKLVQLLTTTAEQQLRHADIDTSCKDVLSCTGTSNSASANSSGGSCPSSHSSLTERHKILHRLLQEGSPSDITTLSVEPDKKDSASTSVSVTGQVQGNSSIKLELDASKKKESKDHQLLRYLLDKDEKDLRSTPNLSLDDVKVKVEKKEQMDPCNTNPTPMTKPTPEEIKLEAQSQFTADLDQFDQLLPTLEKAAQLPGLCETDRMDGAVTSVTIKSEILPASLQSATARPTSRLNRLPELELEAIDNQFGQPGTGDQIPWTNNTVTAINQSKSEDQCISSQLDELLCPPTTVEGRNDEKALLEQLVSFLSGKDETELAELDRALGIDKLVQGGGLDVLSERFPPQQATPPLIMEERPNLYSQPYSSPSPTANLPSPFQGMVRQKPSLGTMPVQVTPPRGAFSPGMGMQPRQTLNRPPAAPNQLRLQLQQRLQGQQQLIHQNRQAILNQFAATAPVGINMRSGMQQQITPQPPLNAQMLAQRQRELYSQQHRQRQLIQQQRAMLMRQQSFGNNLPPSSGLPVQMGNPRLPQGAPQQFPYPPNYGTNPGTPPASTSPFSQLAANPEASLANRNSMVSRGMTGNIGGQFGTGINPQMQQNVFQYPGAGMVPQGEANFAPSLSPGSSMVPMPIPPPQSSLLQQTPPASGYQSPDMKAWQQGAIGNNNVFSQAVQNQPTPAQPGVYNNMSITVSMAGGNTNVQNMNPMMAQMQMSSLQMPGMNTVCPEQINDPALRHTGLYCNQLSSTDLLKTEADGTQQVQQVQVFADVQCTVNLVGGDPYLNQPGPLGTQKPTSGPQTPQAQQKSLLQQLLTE
Peroxisome proliferator-activated receptor gamma/Nuclear receptor coactivator 3, sequence (P37231 whole entry): as the sequence (P37231 whole entry) above
Peroxisome proliferator-activated receptor gamma/Nuclear receptor coactivator 3, sequence (Q9Y6Q9 whole entry, further chain): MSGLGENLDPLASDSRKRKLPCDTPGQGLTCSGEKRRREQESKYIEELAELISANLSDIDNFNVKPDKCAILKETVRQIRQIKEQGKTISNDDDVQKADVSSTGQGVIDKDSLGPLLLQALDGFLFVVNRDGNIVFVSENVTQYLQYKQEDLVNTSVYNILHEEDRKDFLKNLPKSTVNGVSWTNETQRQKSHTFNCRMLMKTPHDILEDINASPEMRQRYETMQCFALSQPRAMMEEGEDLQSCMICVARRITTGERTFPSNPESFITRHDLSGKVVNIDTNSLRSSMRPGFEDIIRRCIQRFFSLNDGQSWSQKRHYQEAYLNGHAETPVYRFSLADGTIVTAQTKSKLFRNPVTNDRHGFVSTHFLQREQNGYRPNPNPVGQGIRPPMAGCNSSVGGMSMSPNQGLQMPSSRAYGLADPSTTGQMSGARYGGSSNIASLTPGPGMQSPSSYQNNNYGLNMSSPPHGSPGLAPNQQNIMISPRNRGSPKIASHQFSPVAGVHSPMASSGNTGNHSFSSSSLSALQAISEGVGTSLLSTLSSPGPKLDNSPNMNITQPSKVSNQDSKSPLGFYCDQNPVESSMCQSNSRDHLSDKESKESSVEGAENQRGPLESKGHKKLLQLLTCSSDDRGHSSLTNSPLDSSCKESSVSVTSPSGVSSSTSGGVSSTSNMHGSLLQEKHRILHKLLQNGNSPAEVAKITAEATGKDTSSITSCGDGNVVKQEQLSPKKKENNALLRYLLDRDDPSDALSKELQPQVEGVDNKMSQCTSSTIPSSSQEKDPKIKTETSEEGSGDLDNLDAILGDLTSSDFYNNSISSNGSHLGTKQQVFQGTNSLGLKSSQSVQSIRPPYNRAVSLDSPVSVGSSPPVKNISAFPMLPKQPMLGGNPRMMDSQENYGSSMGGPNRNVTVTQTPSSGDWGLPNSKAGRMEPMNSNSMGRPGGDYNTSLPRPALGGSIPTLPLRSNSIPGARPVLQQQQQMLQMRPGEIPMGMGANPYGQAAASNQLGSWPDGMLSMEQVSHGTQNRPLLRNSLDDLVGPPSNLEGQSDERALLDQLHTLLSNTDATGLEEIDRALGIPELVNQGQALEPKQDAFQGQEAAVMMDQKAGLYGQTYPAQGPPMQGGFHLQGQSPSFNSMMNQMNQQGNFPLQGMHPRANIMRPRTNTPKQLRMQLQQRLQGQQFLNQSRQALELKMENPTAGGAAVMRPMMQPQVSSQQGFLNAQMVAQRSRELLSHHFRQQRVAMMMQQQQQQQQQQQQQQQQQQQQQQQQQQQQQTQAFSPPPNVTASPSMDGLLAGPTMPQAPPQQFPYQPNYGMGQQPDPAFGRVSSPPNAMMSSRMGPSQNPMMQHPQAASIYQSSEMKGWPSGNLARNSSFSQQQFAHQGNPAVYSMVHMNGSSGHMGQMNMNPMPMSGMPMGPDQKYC

## C=CCNC1=C(NCCCN(CC)CC)C(=O)c2ccccc2C1=O
[1]
  AC50: 25.3 µM (active)
[2]
  AC50: 17.9 µM (active)

## O=[N+]([O-])c1cc(CN2CCOCC2)c2cccnc2c1O
[3]
  IC50: 2.93 µM (active)
[4]
  IC50: 50 µM (inactive)
[5]
  CC50: > 40 µM (active)

## COc1ccccc1-c1noc(-c2cccs2)n1
[6]
  EC50: > 67.5 µM (inactive)

## CC1CCN(S(=O)(=O)c2ccc3c(c2)oc(=O)n3CC(=O)NCc2ccc3c(c2)OCO3)CC1
fMet-Leu-Phe receptor
  Ki: > 66.7 µM (inactive)

## Oc1cc(CSc2ccccn2)nc(O)n1
[7]
  AC50: 1.86 µM (active)

## CCOC(=O)C1CCN(Cc2ccc(C(=O)OC)cc2)CC1
fMet-Leu-Phe receptor
  Ki: > 66.7 µM (inactive)

## COc1ccc(Br)cc1C(=O)N/N=C/c1ccc([N+](=O)[O-])cc1
[8]
  EC50: > 79.4 µM (not active)
[9]
  EC50: > 79.4 µM (not active)
[10]
  EC50: > 79.4 µM (not active)

## COc1ccccc1C#Cc1ccc2c(c1)O[C@@H](CN(C)Cc1cccnc1)[C@H](C)CN([C@H](C)CO)S2(=O)=O
Paired box protein Pax-8
  AC50: 2.04 µM (active)
[7]
  AC50: 5.09 µM (active)
[11]
  AC50: 21.8 µM (active)
[12]
  AC50: 18.3 µM (active)

## COc1cc(/C=N/NS(=O)(=O)c2ccc(C)cc2)ccc1OCc1cccc(C(=O)O)c1
[13]
  AC50: 2.17 µM (active)
[14]
  AC50: 19.5 µM (active)
Paired box protein Pax-8
  AC50: 13 µM (active)
[15]
  AC50: 5.81 µM (active)
[16]
  AC50: 6.48 µM (active)

## C[C@@H]1CCCCO[C@H](CN(C)C(=O)Cc2ccccc2)[C@@H](C)CN([C@@H](C)CO)C(=O)c2cc(NS(=O)(=O)c3ccc(Cl)cc3)ccc2O1
Paired box protein Pax-8
  AC50: 7.18 µM (active)
[17]
  AC50: 48.6 µM (active)
[18]
  AC50: 23.3 µM (active)
[12]
  AC50: 39.2 µM (active)

## O=C(NC1=C(c2ccc(OC(F)(F)F)cc2)C(=O)c2ccccc2C1=O)c1ccccc1
[1]
  AC50: 28.5 µM (active)
[2]
  AC50: 20.7 µM (active)

## Oc1cc(-c2ccccc2)nc2nc(-c3ccco3)nn12
[19]
  IC50: 80 µM (inactive)
[20]
  IC50: > 20 µM (inactive)

## CNc1nc(-c2c[nH]c3ccccc23)cs1
[20]
  IC50: > 20 µM (inactive)

## ON=C(CCc1ccccc1)c1ccccc1
[6]
  EC50: > 67.5 µM (inactive)

## COc1ccc(NC(=O)Nc2ccc3c(c2)CC(=O)N([C@@H](C)CO)C[C@@H](C)[C@H](CN(C)Cc2ccncc2)O3)cc1
[21]
  AC50: > 52 µM (inactive)
[22]
  AC50: > 52 µM (inactive)

## Cc1ccc(C(=O)C2C(=O)C3CCC2C3)cc1 (centres undefined)
[23]
  AC50: 8.6 µM (active)
[24]
  AC50: 4.95 µM (active)
[22]
  AC50: > 52 µM (inactive)

## CN(Cc1cc2ccccc2nc1O)S(C)(=O)=O
[25]
  EC50: > 20 µM (not active)
[26]
  EC50: > 20 µM (not active)

## c1ccc(-c2ccc(C(c3ccccc3)n3ccnc3)cc2)cc1 (centres undefined) [BIFONAZOLE]
[25]
  EC50: > 20 µM (not active)
[27]
  CC50: > 40 µM (active)
[26]
  EC50: 17.8 µM (active)
[28]
  IC50: 14.7 µM (not active)
Cysteine protease ATG4B
  IC50: 8.5 µM (active)
[29]
  AC50: 1.06 µM (active)
Phospholipase A2
  IC50: 8.89 µM (active)

## COc1ccc(Nc2c(CCc3ccccc3)nc3nc(C)cc(C)n23)cc1
[13]
  AC50: 5.27 µM (active)
[14]
  AC50: 6.28 µM (active)
[15]
  AC50: 4.03 µM (active)
[16]
  AC50: 4.63 µM (active)

## Oc1cc2c(cc1O)[C@@H](c1ccccc1)CNCC2
Mu-type opioid receptor
  EC50: 92.7 µM (inactive)
[30]
  EC50: 28.2 µM (inactive)
[5]
  CC50: > 40 µM (active)

## O=[N+]([O-])c1ccc(/C=N/Nc2nc(-c3ccccc3)c3cc(Br)ccc3n2)o1
[31]
  CC50: > 50 µM (active)
[32]
  EC50: 0.703 µM (active)
[33]
  EC50: 26.1 µM (active)
[34]
  EC50: 29.7 µM (active)
Streptococcus
  EC50: 0.934 µM (active)
[19]
  IC50: 80 µM (inactive)
[20]
  IC50: 6.57 µM (active)
